# Test results reported in patent US5506204A, “Muramyl compounds for treatment of septic shock” (Peptech (UK) Limited, priority 1991, dated 1996).
# Like-named read-outs stand apart in the source and are kept apart here.
# Assays:
# Pyrogenicity = conditions: in vivo
# Procedure: The expression "non pyrogenic or of low pyrogenicity" refers to a compound which induces an increase in temperature of an adult human of less than half a degree following the administration of 1 to 2 mg of the compound.
# First, muramyl peptide compounds useful in the invention may be non-pyrogenic. Pyrogenicity may be simply measured by methods well known in the art.
# [1] = system: LPS-induced mortality in mice; assay: Example 3: LPS-induced mortality in mice; format: in vivo, BALB/c mice; conditions: i.p. twice daily 100 μg or molar equivalent per mouse for 9 days before 300 μg LPS; mortality 2 days after LPS; FIG. 1
# Procedure: 25 female BALB/c mice weighing 16-18 g each were divided into 5 groups, each group containing 5 animals. Each group of mice received twice-daily doses of saline, GMDP, GMDP-OBu, MDP or GMDP-A. The compounds were administered by intra-peritoneal injection in twice-daily doses of 100 μg or the molar equivalent per mouse during a 9-day period before the injection of 300 μg LPS per mouse. […] Thus GMDP and GMDP-A would be useful in the treatment and prevention of sepsis and septic shock, whereas MDP and GMDP-OBu would not.
# mice = conditions: acute toxicity in mice; cited from earlier work
# neutrophils [2] = system: neutrophils
# Procedure: (§1) Neutrophils were isolated from peripheral blood. 3.5 ml of heparinised blood was spread over M-PRM medium (Flow Laboratories) and centrifuged for 40 minutes at 400g at 20° C. […] The cells were adjusted to a concentration of 2×10^6 ml.
# (§2) Chemiluminescence: Luminol-dependent chemiluminescence was measured on a 1251 Luminometer (LKB).
# (§3) For chemiluminescence, superoxide anion production, myeloperoxidase and acid phosphatase both the spontaneous and induced reactions were measured. Induction was performed by exposing the cells to opsonized zymosan (30 μl, 20 mg/ml) for 30 minutes at 37° C. before the assay.
# (§4) On day before treatment with GMDP (day -1) the neutrophil function of all patients was measured by the tests described above in Example 1. In the GMDP-treated group, GMDP was administered parenterally at a dose of 1-2 mg/day for five consecutive days. The total dose of GMDP was […].
# (§5) One day after the cessation of GMDP treatment (day +6), neutrophil function was again measured in all patients.
# neutrophils [3] = system: neutrophils; remark: listed apart in the source
# Procedure: as §1
# (§6) Acid phosphatase: 50 μl of substrate mixture, consisting of 0.24% paranitrophenyl phosphate (Boehring) and 0.84% NaCl in a sodium citrate buffer (pH 5.5) were added to cells and incubated for 30 minutes at 30° C. before the reaction was by adding 100 μl of 0.2M NaOH. The optical density at 405 mu was measured with a Multiscan Titertek Plus (Flow Laboratories).
# as §3
# (§7) In the treated group GMDP was given per os on days -2 and -1 before the operation, and subcutaneously on days +1, +2 and +3 after the operation at a dose of 1-2 mg/day. The total dose of GMDP was […]. On day +5 after the operation neutrophil function was again assessed in all patients by the same parameters as specified above.
# peritoneal macrophages = conditions: 100 μg i.p. per mouse, LPS 300 μg one day later, black ink uptake, OD 610 nm; FIG. 2
# Procedure: Mice were divided into 9 groups and to each group was administered one of the following: saline, MDP, MDP-OBu, MDP-Thr, GMDP, MDP-Lys(St), GMDP-OH and GMDP-LL.
# The compound under test was injected into the peritoneal cavity of mice, each mouse receiving 100 μg or an equimolar equivalent dose. Control mice received 200 μl of saline. One day after injection of the muramyl peptide, a lethal does of LPS (300 μg per mouse) in 200 μl of physiological saline was injected intraperitoneally and after 20 minutes, 1 ml of black ink was also administered intraperitoneally. 10 minutes later, peritoneal macrophages were obtained and washed twice. The number of cells was counted and then the macrophages were lysed and the optical density of the supernatant was determined at 610 nm.
# neutrophils [4] = system: neutrophils; remark: listed apart in the source
# Procedure: as §1
# (§8) Myeloperoxidase: 100 μl of substrate mixture, consisting of 0.04% orthophenylene diamine (Sigma) and 0.014% hydrogen peroxide in phosphate citrate buffer (pH 5.0) was added to cells and incubated for 10 minutes before the reaction was stopped with 100 μl of 10% sulphuric acid. The optical density at 492 mu was measured with a Multiscan Titertek Plus (Flow Laboratories).
# as §3, §4, §5
# neutrophils [5] = system: neutrophils; remark: listed apart in the source
# Procedure: as §1
# (§9) Superoxide anion production was determined by the NBT test (Merck).
# as §3, §4, §5
# neutrophils [6] = system: neutrophils; remark: listed apart in the source
# Procedure: as §1, §9, §3, §7
# neutrophils [7] = system: neutrophils; remark: listed apart in the source
# Procedure: as §1, §6, §3, §4, §5
# neutrophils [8] = system: neutrophils; remark: listed apart in the source
# Procedure: as §1, §8, §3, §7
# neutrophils [9] = system: neutrophils; remark: listed apart in the source
# Procedure: as §1, §2, §3, §7
# [10] = opsonized zymosan, Day -1 (before treatment)
# [11] = opsonized zymosan, Day -1 to Day +6
# [12] = opsonized zymosan, Day -3 (before treatment)
# [13] = opsonized zymosan, Day -3 to Day +5
smiles,measurement,setting,value
"CC(=O)NC1C(OC2C(CO)OC(O)C(NC(C)=O)C2OC(C)C(=O)NC(C)C(=O)NC(CCC(=O)O)C(N)=O)OC(CO)C(O)C1O [GMDP, N-acetyl-D-glucosaminyl-(β1-4)-N-acetylmuramyl-L-alanyl-D-isoglutamine]",pyrogenicity,Pyrogenicity,sufficiently low
same,effect on LPS-induced mortality,[1],antagonise the effect of LPS
same,LD50,mice,7000 mg/kg
same,"Chemiluminescent, spontaneous",neutrophils [2]; Day +6,4.16 ± 0.14 mV
same,"Chemiluminescent, spontaneous",neutrophils [2]; Day -1 (before treatment),2.41 ± 0.14 mV
same,"Chemiluminescent, spontaneous % Change",neutrophils [2]; Day -1 to Day +6,+72.6%
same,"Chemiluminescent, induced","neutrophils [2]; opsonized zymosan, Day +6",21.3 ± 3.51 mV
same,"Chemiluminescent, induced",neutrophils [2]; [10],9.41 ± 2.1 mV
same,"Chemiluminescent, induced % Change",neutrophils [2]; [11],+126.4%
same,"Acid phosphatase, spontaneous",neutrophils [3]; Day +5,114.9 ± 2.4 O.D. 405μ
same,"Acid phosphatase, spontaneous",neutrophils [3]; Day -3 (before treatment),133.8 ± 75 O.D. 405μ
same,"Acid phosphatase, spontaneous % Change",neutrophils [3]; Day -3 to Day +5,-14.1%
same,"Acid phosphatase, induced","neutrophils [3]; opsonized zymosan, Day +5",120.8 ± 3.2 O.D. 405μ
same,"Acid phosphatase, induced",neutrophils [3]; [12],172.3 ± 18.8 O.D. 405μ
same,"Acid phosphatase, induced % Change",neutrophils [3]; [13],-29.94%
same,phagocytic activity of macrophages,peritoneal macrophages,potent in increasing macrophage activity
same,"Myeloperoxidase, spontaneous",neutrophils [4]; Day +6,595.2 ± 48.3 O.D. 492μ
same,"Myeloperoxidase, spontaneous",neutrophils [4]; Day -1 (before treatment),504.5 ± 118 O.D. 492μ
same,"Myeloperoxidase, spontaneous % Change",neutrophils [4]; Day -1 to Day +6,+17.9%
same,"Myeloperoxidase, induced","neutrophils [4]; opsonized zymosan, Day +6",587.1 ± 96.3 O.D. 492μ
same,"Myeloperoxidase, induced",neutrophils [4]; [10],520.3 ± 60.1 O.D. 492μ
same,"Myeloperoxidase, induced % Change",neutrophils [4]; [11],+12.8%
same,"Superoxide, spontaneous",neutrophils [5]; Day +6,84.3 ± 8.7 O.D. 540μ
same,"Superoxide, spontaneous",neutrophils [5]; Day -1 (before treatment),55.5 ± 6.4 O.D. 540μ
same,"Superoxide, spontaneous % Change",neutrophils [5]; Day -1 to Day +6,+51.9%
same,"Superoxide, induced",neutrophils [5]; [10],92.1 ± 3.21 O.D. 540μ
same,"Superoxide, induced % Change",neutrophils [5]; [11],+53.2%
same,"Superoxide, spontaneous",neutrophils [6]; Day +5,97.6 ± 12.8
same,"Superoxide, spontaneous",neutrophils [6]; Day -3 (before treatment),78.9 ± 15.7
same,"Superoxide, spontaneous % Change",neutrophils [6]; Day -3 to Day +5,+23.7%
same,"Superoxide, induced","neutrophils [6]; opsonized zymosan, Day +5",134.9 ± 11.3
same,"Superoxide, induced",neutrophils [6]; [12],133.7 ± 16.1
same,"Superoxide, induced % Change",neutrophils [6]; [13],+0.9%
same,"Acid phosphatase, spontaneous",neutrophils [7]; Day +6,251.3 ± 16.1 O.D. 405μ
same,"Acid phosphatase, spontaneous",neutrophils [7]; Day -1 (before treatment),119.4 ± 10.1 O.D. 405μ
same,"Acid phosphatase, spontaneous % Change",neutrophils [7]; Day -1 to Day +6,+110.5%
same,"Acid phosphatase, induced","neutrophils [7]; opsonized zymosan, Day +6",201 ± 14.3 O.D. 405μ
same,"Acid phosphatase, induced",neutrophils [7]; [10],104.4 ± 3.6 O.D. 405μ
same,"Acid phosphatase, induced % Change",neutrophils [7]; [11],+92.5%
same,"Myeloperoxidase, spontaneous",neutrophils [8]; Day +5,1075 ± 178.3 O.D. 492μ
same,"Myeloperoxidase, spontaneous",neutrophils [8]; Day -3 (before treatment),1145 ± 204.1 O.D. 492μ
same,"Myeloperoxidase, spontaneous % Change",neutrophils [8]; Day -3 to Day +5,-6.1%
same,"Myeloperoxidase, induced","neutrophils [8]; opsonized zymosan, Day +5",948.3 ± 205 O.D. 492μ
same,"Myeloperoxidase, induced",neutrophils [8]; [12],948.3 ± 205 O.D. 492μ
same,"Myeloperoxidase, induced % Change",neutrophils [8]; [13],+11.2%
same,"Chemiluminescence, spontaneous",neutrophils [9]; Day +5,3.37 ± 0.70 mV
same,"Chemiluminescence, spontaneous",neutrophils [9]; Day -3 (before treatment),1.82 ± 0.07 mV
same,"Chemiluminescence, spontaneous % Change",neutrophils [9]; Day -3 to Day +5,+85.2%
same,"Chemiluminescence, induced","neutrophils [9]; opsonized zymosan, Day +5",15.8 ± 4.2 mV
same,"Chemiluminescence, induced",neutrophils [9]; [12],11.3 ± 2.1 mV
same,"Chemiluminescence, induced % Change",neutrophils [9]; [13],+39.8%
